# From PMC5736709, “Unravelling the specificity and mechanism of sialic acid recognition by the gut symbiont Ruminococcus gnavus” (Nature Communications, 2017)
# Several values for one entry are separate records, joined by “and”; a condition that tells them apart may be missing. Equal entries are not always repeated. Entries after “also recorded” stand apart in the source; their conditions may differ. Where two headings read alike, the source gives them in different places.
# Legend:
# Design in all cases: species or system Ruminococcus gnavus ATCC 29149
# [1] = target: T1, RgCBM40 (Mediterraneibacter gnavus (Ruminococcus gnavus), UniProt A7B557); test: STD NMR of sialoglycans with RgCBM40 WT; conditions: 1 mM sialoglycan, 50 μM RgCBM40 WT, 288 K; 'exception' = monosaccharides for which binding was not detected
# Description: ^1H and ^13C resonance assignment for all the sugars was performed on the bases of 1D ^1H, 2D DQF-COSY, TOCSY, HSQC and NOESY experiments run on the free ligands in unbuffered D2O, pH 7.0. For STD NMR experiments, all the samples consisted of 1 mM sialoglycans and 50 μM RgCBM40 (WT or I95A mutant) in D2O buffer solution of 10 mM Tris-d11 pH 7.8 and 100 mM NaCl (ligand: protein ratio 20:1). An STD pulse sequence that included 2.5 ms and 5 ms trim pulses and a 3 ms spoil gradient was used. Saturation was achieved applying a train of 50 ms Gaussian pulses (0.40 mW) on the f2 channel, at 0.60 p.p.m. (on-resonance experiments) and 40 p.p.m. (off-resonance experiments). The broad protein signals were removed using a 40 ms spinlock (T1ρ) filter. All the experiments were recorded at ^1H frequency of 800.23 MHz on a Bruker Avance III spectrometer equipped with a 5 mm probe TXI 800 MHz H-C/N-D-05 Z BTO, at 288 K. For all the sialoglycans in the presence of RgCBM40, an STD experiment with a saturation time of 2 s and a relaxation delay of 5 s was performed, as a first test for binding. For the confirmed binders, the STD NMR experiments were carried out at different saturation times (0.5, 1, 2, 3, 4 and 5 s) with 1 K scans and relaxation delay of 5 s, in order to obtain the binding epitope mapping. The resulting build-up curves for each proton were fitted mathematically to a mono-exponential equation (y = a×[1-exp(b×x)]), from which the initial slopes (a×b) were obtained. For each ligand, the binding epitope mapping was obtained by dividing the initial slopes by the one of the H7 proton of the corresponding sialic acid ring, to which an arbitrary value of 100% was assigned. This normalisation of the STD values allows the comparison across all the sialoglycans.
# [2] = target: T1, RgCBM40; test: ITC of sialoglycans binding to RgCBM40 wild type; conditions: RgCBM40 WT; for Kd: ITC in PBS, 115-230 μM protein in cell, syringe 10 mM sugar (25 mM for Neu5Ac), * = estimate only, Kd too high to determine
# Description: Isothermal titration calorimetry (ITC) experiments were performed using the PEAQ-ITC system (Malvern, Malvern, UK) with a cell volume of 200 µl. Prior to titration protein samples were exhaustively dialysed into PBS. The ligand was dissolved in the dialysis buffer. The cell protein concentration was 115 µM (except for mutant I95A where it was 173 µM and the wild-type interaction with 6′SL where it was 230 µM) and the syringe ligand concentration was 10 mM (25 mM for Neu5Ac). Controls with titrant (sugar) injected into buffer only were subtracted from the data. Analysis was performed using Malvern software, using a single-binding site model. The stoichiometry of binding sites was set to 1.0 as this was evident from the crystal structure. Quantitative and most qualitative experiments were carried out in triplicate.
# [3] = tested on: RgGH33 D282A; test: Sialoglycan microarray binding of RgGH33 D282A; conditions: RgGH33 D282A at 200 µg ml^−1
# Description: (§1) Glycan microarrays were fabricated using epoxide-derivatized slides as previously described. Printed glycan microarray slides were blocked by ethanolamine, washed and dried. Slides were then fitted in a multi-well microarray hybridisation cassette (AHC4X8S, ArrayIt, Sunnyvale, CA, USA) to divide into 8 subarrays. The subarrays were blocked with ovalbumin (1% w/v) in PBS (pH 7.4) for 1 h at room temperature, with gentle shaking. Subsequently, the blocking solution was removed and diluted protein samples of RgCBM40 and RgGH33 D282A with various concentrations were added to each subarray. After incubating the samples for 2 h at room temperature with gentle shaking, the slides were washed. Diluted anti-His-HiLyte Flour 555 antibodies in PBS were added to the subarrays, incubated for 1 h at room temperature, washed and dried. The microarray slides were scanned by Genepix 4000B microarray scanner (Molecular Devices Corp., Union City, CA, USA). The data analysis was performed using Genepix Pro 7.0 analysis software (Molecular Devices Corp.). It is important to note that glycans on the array with sialic acid O-acetyl groups undergo gradual losses of these labile ester groups. Therefore, definitive conclusions about 9-O-acetylation are only possible in instances wherein binding is exclusively to the O-acetylated sialoglycan spot, and not to the corresponding non-O-acetylated spot.
# [4] = target: T1, RgCBM40; test: Sialoglycan microarray binding of RgCBM40; conditions: for Binding of RgCBM40 on sialoglycan microarray: RgCBM40 at 20 µg ml^−1; for Binding intensity on sialoglycan microarray, fold less: RgCBM40, βR1-linked glycans
# Description: as §1
# T1 sequence (A7B557 entry or part of it): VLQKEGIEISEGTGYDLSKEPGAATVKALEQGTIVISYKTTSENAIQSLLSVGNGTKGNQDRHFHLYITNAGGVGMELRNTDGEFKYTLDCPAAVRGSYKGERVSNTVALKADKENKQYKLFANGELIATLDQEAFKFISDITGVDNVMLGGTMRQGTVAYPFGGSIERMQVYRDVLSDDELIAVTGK
compound,measurement,setting,value
"CC(=O)N[C@H]1C2OC(C(=O)O)(C[C@@H]1O)O[C@@H]2[C@H](O)CO (stereo partly drawn) [2,7-anhydro-Neu5Ac]",Binding to RgCBM40 detected by STD NMR,[1],exception
"CC(=O)NC1C(O)CC(OC2C(O)C(O)OC(CO)C2O)(C(=O)O)OC1C(O)C(O)CO (stereo not drawn) [3′SGal, Neu5Acα3Gal]",Binding to RgCBM40 detected by STD NMR,[1],detected
"O=C(CO)N[C@H]1[C@H]([C@H](O)[C@H](O)CO)O[C@@](O[C@H]2[C@@H](O)[C@@H](CO)O[C@@H](O[C@H]3[C@H](O)[C@@H](O)C(O)O[C@@H]3CO)[C@@H]2O)(C(=O)O)C[C@@H]1O (stereo partly drawn) [3′SLGc, Neu5Gcα3Lac]",Kd,[2]; Kd,2.69 mM and ~3 mM
same,Binding to RgCBM40 detected by STD NMR,[1],detected
"CC(=O)N[C@H]1[C@H]([C@H](O)[C@H](O)CO)O[C@@](O[C@H]2[C@@H](O)[C@@H](CO)O[C@@H](O[C@H]3[C@H](O)[C@@H](NC(C)=O)C(O)O[C@@H]3CO)[C@@H]2O)(C(=O)O)C[C@@H]1O (stereo partly drawn) [3′SLN, Neu5Acα3LacNAcβ]",Binding of RgGH33 D282A on sialoglycan microarray,[3],interacted weakly
same,Binding to RgCBM40 detected by STD NMR,[1],detected
"CC(=O)N[C@H]1[C@H]([C@H](O)[C@H](O)CO)OC(OC[C@H]2OC(O)[C@H](O)[C@@H](O)[C@H]2O)(C(=O)O)C[C@@H]1O (stereo partly drawn) [6′SGal, Neu5Acα6 Gal]",Binding to RgCBM40 detected by STD NMR,[1],detected
"O=C(CO)N[C@H]1[C@H]([C@H](O)[C@H](O)CO)O[C@@](OC[C@H]2O[C@@H](O[C@H]3[C@H](O)[C@@H](O)C(O)O[C@@H]3CO)[C@H](O)[C@@H](O)[C@H]2O)(C(=O)O)C[C@@H]1O (stereo partly drawn) [6′SLGc, Neu5Gcα6Lac]",Kd,[2]; Kd,~11 mM and > 10 mM
same,Binding to RgCBM40 detected by STD NMR,[1],detected
"CC(=O)N[C@H]1[C@H]([C@H](O)[C@H](O)CO)O[C@](OC[C@H]2O[C@@H](O[C@H]3[C@H](O)[C@@H](NC(C)=O)C(O)O[C@@H]3CO)[C@H](O)[C@@H](O)[C@H]2O)(C(=O)O)C[C@@H]1O (stereo partly drawn) [6′SLN, Neu5Acα6LacNAc]",Binding to RgCBM40 detected by STD NMR,[1],detected
"CC(=O)N[C@H]1[C@H]([C@H](O)[C@H](O)COC(C)=O)O[C@@](O[C@H]2[C@@H](O)[C@@H](CO)O[C@@H](OCCCN=[N+]=[N-])[C@@H]2O)(C(=O)O)C[C@@H]1O [Neu5,9Ac2α3GalβR1]",Binding of RgCBM40 on sialoglycan microarray,[4],highest binding
O=C(CO)N[C@H]1[C@H]([C@H](O)[C@H](O)CO)OC(O)(C(=O)O)C[C@@H]1O (stereo partly drawn) [Neu5Gc],Binding to RgCBM40 (in words),[2],weak binding
same,Kd,[2]; read-out: Kd,~21 mM and ~20 mM
same,Binding to RgCBM40 detected by STD NMR,[1],exception; also recorded: no interaction was observed
"CC(=O)NC1C(O)CC(OC2C(O)C(CO)OC(OC3C(O)C(CO)OC(O)C3NC(C)=O)C2O)(C(=O)O)OC1C(O)C(O)CO (stereo not drawn) [STF, Neu5Acα3Galβ3GalNAc]",Binding of RgGH33 D282A on sialoglycan microarray,[3],interacted weakly
CC(=O)NC1C(O)CC(OC2C(O)C(CO)OC(OC3C(O)C(CO)OC(OCCCN=[N+]=[N-])C3NC(C)=O)C2O)(C(=O)O)OC1C(O)C(O)CO (stereo not drawn) [STFαOC3H6N3],Binding to RgCBM40 detected by STD NMR,[1],detected
"Neu5,9Ac2-TF9Ac2α2-3TF",Binding of RgCBM40 on sialoglycan microarray,[4],bound
"Neu5,9Ac2α2-6Tn",Binding of RgCBM40 on sialoglycan microarray,[4],bound
Neu5Acα2-3TF,Binding of RgCBM40 on sialoglycan microarray,[4],bound
Neu5Acα2-6Tn,Binding of RgCBM40 on sialoglycan microarray,[4],bound
Neu5Acα3Galβ3GalNAcβ3Lac,Binding of RgGH33 D282A on sialoglycan microarray,[3],interacted weakly
Neu5Acα3Lacβ [GM3],Binding of RgGH33 D282A on sialoglycan microarray,[3],interacted weakly
Neu5Acα6GalαOC3H6N3 [Neu5Ac-STn],Binding to RgCBM40 detected by STD NMR,[1],detected
Neu5Gc9Acα3Galβ3GalNAcβR1 [Neu5Gc9Ac-TF],"Binding intensity on sialoglycan microarray, fold less",[4],5–10 fold
Neu5Gcα3Galβ3GalNAcβR1 [Neu5Gc-TF],"Binding intensity on sialoglycan microarray, fold less",[4],5–10 fold
Neu5Gcα6GalαOC3H6N3 [Neu5Gc-STn],Binding to RgCBM40 detected by STD NMR,[1],detected
α2-3-sialylated Lewis X [3′SLX],Binding of RgCBM40 on sialoglycan microarray,[4],bound
